What all share (format): functional, organism-based, Influenza A virus (A/Texas/12/2007(H3N2))
Holding throughout (conditions): mdck

Assay [1] has as its system Influenza A virus.
Assay [2] deals with Influenza A virus. The source holds these as a separate data set.
In assay [3] the test system is Influenza A virus. This is another data set of the same source.
Assay [4] deals with Influenza A virus. The source holds these as a separate data set.
The test system of assay [5] is Influenza A virus. The source holds these as a separate data set.
Assay [6] concerns Influenza A virus. This is another data set of the same source.
The test system of assay [7] is Influenza A virus. The source holds these as a separate data set.

The structures appear in SMILES notation.

Data on four molecules can be found in ChEMBL document CHEMBL1255450, “Detection of E119V and E119I mutations in influenza A (H3N2) viruses isolated from an immunocompromised patient: challenges in diagnosis of oseltamivir resistance” (Antimicrob Agents Chemother, 2010).

The term IC50 denotes the concentration that inhibits the measured activity by half. As for `CCC(CC)[C@H](NC(C)=O)[C@@H]1[C@H](O)[C@@H](C(=O)O)C[C@H]1NC(=N)N` [PERAMIVIR ANHYDROUS], the IC50 with Influenza A virus [1] was found to be 0.51 nM; in the assay with Influenza A virus [2], 0.9 nM; in the assay on Influenza A virus [3] it was 1.47 nM; with Influenza A virus [4], 0.43 nM; with Influenza A virus [5], 214 nM; in the assay with Influenza A virus [6] (read-out: IC50), 33.6 nM.
`CC(=O)N[C@H]1[C@H]([C@H](O)[C@H](O)CO)OC(C(=O)O)=C[C@@H]1NC(=N)N` [ZANAMIVIR]: the IC50 was 1.54 nM in the assay with Influenza A virus [1], 12.7 nM with Influenza A virus [2], 18.6 nM in the assay with Influenza A virus [5] and 3.8 nM in the assay with Influenza A virus [6] (read-out: IC50).
Consider `C/C=C\[C@@H]1C[C@H](C(=O)O)N[C@H]1[C@@H](NC(C)=O)[C@](C)(CCC)OC`, for which the IC50 in the assay on Influenza A virus [1] amounted to 1.35 nM; with Influenza A virus [2] it was 4.96 nM; in the assay with Influenza A virus [3], 5.45 nM; in the assay with Influenza A virus [4] it was 1.25 nM; with Influenza A virus [5] it was 23.9 nM; with Influenza A virus [6] (read-out: IC50), 3 nM.
Regarding `CCOC(=O)C1=C[C@@H](OC(CC)CC)[C@H](NC(C)=O)[C@@H](N)C1` [OSELTAMIVIR], the IC50 with Influenza A virus [1] is 8.06 nM; in the assay with Influenza A virus [2], 33.2 nM; with Influenza A virus [3], 246 nM; in the assay on Influenza A virus [7], 9.18 nM; in the assay with Influenza A virus [4], 5.49 nM; in the assay on Influenza A virus [5], 431 nM. In the assay on Influenza A virus [6], this molecule had an IC50 of 154 nM.
